Earlier results on 2 substances are cited in paper PMC10837402, “Unnatural amino acid substitutions to improve in vivo stability and tumor uptake of ^68Ga-labeled GRPR-targeted TacBOMB2 derivatives for cancer imaging with positron emission tomography” (EJNMMI Radiopharmacy and Chemistry, 2024).

Usually Ki stands for the equilibrium dissociation constant of an inhibitor or competing ligand from its target.

Series [1] concerns the target T1, GRPR (Homo sapiens, UniProt P30550).
T1 construct: generated using GRPR-expressing PC-3 cells; endogenous in cells; host or cells: PC-3 cells
Also on record: method as in Wang et al. [2023]. The note with it: previously reported; ref Wang et al. [2023]; read-out: GRPR binding affinity (Ki); cited from earlier work.

Series [2] has as its system GRPR-expressing PC-3 tumor xenografts. The note with it: mouse, in vivo, 1 h; cited from earlier work.
The target in series [3] is T1, GRPR. To be noted: vs Ac-Bombesin(7–14); ref Horwell et al. 1996; cited from earlier work.

T1 sequence (P30550 whole entry): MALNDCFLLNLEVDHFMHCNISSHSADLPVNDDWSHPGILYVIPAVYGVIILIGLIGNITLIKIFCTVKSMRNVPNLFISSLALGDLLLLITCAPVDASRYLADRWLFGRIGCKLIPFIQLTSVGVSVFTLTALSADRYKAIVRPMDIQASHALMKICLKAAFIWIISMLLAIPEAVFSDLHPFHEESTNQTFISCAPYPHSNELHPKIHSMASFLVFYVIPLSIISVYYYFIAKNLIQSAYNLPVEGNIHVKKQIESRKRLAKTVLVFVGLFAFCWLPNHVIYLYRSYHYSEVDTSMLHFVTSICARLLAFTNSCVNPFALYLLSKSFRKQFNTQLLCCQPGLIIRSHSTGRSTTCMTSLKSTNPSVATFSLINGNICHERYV

“^68Ga-DOTA-Pip-D-Phe^6-Gln^7-Trp^8-Ala^9-Val^10-Gly^11-His^12-Leu^13-Thz^14-NH2 [[^68Ga]Ga-TacBOMB2]”: the Ki in series [1] was 7.62 nM. Besides, in series [2], the “Uptake in PC-3 tumor” value is on record as 5.95 %ID/g, the “Uptake in adrenal glands” value is listed as 0.52 ± 0.11 %ID/g, the Uptake in blood was 0.39 ± 0.12 %ID/g and the Uptake in bone was 0.26 ± 0.11 %ID/g. Further, in series [2], the Uptake in brain is reported as 0.03 ± 0.01 %ID/g, the Uptake in fat is reported as 0.10 ± 0.03 %ID/g, the Uptake in heart is on record as 0.14 ± 0.02 %ID/g and the Uptake in kidneys was 2.43 ± 0.16 %ID/g. Moreover, in series [2], the Uptake in liver is listed as 0.29 ± 0.13 %ID/g, the Uptake in lungs is reported as 0.39 ± 0.10 %ID/g, the Uptake in muscle was 0.13 ± 0.08 %ID/g and the Uptake in pancreas was 1.30 ± 0.14 %ID/g. In series [2], the “Uptake in small intestine” value is 0.60 ± 0.12 %ID/g, the Uptake in spleen is listed as 0.27 ± 0.10 %ID/g, the Uptake in stomach is 0.54 ± 0.27 %ID/g and the Uptake in testes is listed as 0.16 ± 0.05 %ID/g.
In the case of Ac-[NMe-Gly^11]Bombesin(7–14), the “Reduction in GRPR binding affinity caused by NMe-Gly^11 substitution” value in series [3] was above 30 fold.
